As a reminder, the GI50 is the concentration at which growth is held to half of that of the control. A higher GI50 goes with lower sensitivity of the cells. As a reminder, the microsomal CLint is the rate of metabolic loss divided by the concentration. Low readings indicate greater metabolic stability, high ones faster metabolism.

Series [1] concerns breast cancer cell line SUM159 sphere. Put plainly: Breast cancer stem cell sphere formation. Type of series: cell-based, human. Particulars: 50 nM; for formation of the sphere after cell passage: 5 days of drug treatment, then passage. As to the method: The inhibitory effects of embodiment compounds 5, 7, 11, 13, 14, 20 and 21 on the formation of breast cancer cell line SUM159 sphere are described as follows.
The breast cancer cell line SUM159 sphere was cultured with serum-free medium in an ultra-low adsorption plate, the basal medium was DMEM/F12 (without phenol red), and B27 (without vitamin A) (1×), EGF (20 ng/ml), bFGF (20 ng/ml) and insulin (insulin, 5 ug/ml) were added.
An equal number (4000) of SUM159 cells per well were inoculated into an ultra-low adsorption 24 plate, and the sphere was photographed after 5 days of culture, replaced with fresh medium, and treated with drugs at certain concentrations, respectively. Compounds 5, 7, 11, 13, 14, 20 and 21 were evaluated in this experiment at 50 nM, respectively. The effect of the drug on the sphere phenotype could be observed after about 3 days of drug treatment. The sphere was photographed again after 5 days of drug treatment, and then the sphere was passaged. The sphere was photographed again after 7 days of passage.
The differences of the photographs taken in three different stages were counted and compared, and the killing effect of the tested compounds on SUM159 sphere was evaluated through the differences of sphere formation after passage, thus reflecting the inhibitory effects of different compounds on breast cancer stem cells.

A further series has as its system HCT116 (colon cancer). Put plainly: NCI method SRB growth inhibition, HCT116. It counts as cell-based. The settings on record: Homo sapiens, HCT-116; HCT116, treated 48 hours, SRB stain. The procedure, abridged: (§1)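 Following the NCI method, one plate is fixed immediately before compound addition, test wells are fixed after 48 h treatment, and vehicle wells after 48 h in medium. All are stained with sulforhodamine B and measured at 515 nm, and GI50, TGI and LC50 are derived from the growth-rate curves.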
For orientation: In SRB staining, fixed cells bind dye roughly in proportion to their protein.

Series [2] in a line: Liver microsomes stability. Particulars: 1 μM compound, 1 mg/mL human liver microsomes, 1 mM NADPH; for half-life at 1 μM: read-out: T½ of HLM. Type of series: in vitro ADME, human. The procedure, abridged:
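Compound at 1 μM final incubated with 1 mg/mL human liver microsomes and 1 mM NADPH (no-NADPH control), sampled at 0, 5, 15, 30, 60 min. Remaining parent quantified by LC-MS/MS; T1/2 = 0.693/k.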

The subject of the next series is PC-3 (prostate cancer). Put plainly: NCI method SRB growth inhibition, PC-3. It counts as cell-based. Particulars: Homo sapiens; PC-3, treated 48 hours, SRB stain. A digest of the protocol:
as §1

Series [3] deals with SF295 (central nervous system tumor). Put plainly: NCI method SRB growth inhibition, SF295. It counts as cell-based. Particulars: Homo sapiens, SF-295; SF295, treated 48 hours, SRB stain. A digest of the protocol: as §1
For another series, the system named is 786-0 (renal cancer). Put plainly: NCI method SRB growth inhibition, 786-0. Particulars: Homo sapiens; 786-0, treated 48 hours, SRB stain. It counts as cell-based. A digest of the protocol:
as §1

Another series concerns OVCAR-3 (ovarian cancer). Put plainly: NCI method SRB growth inhibition, OVCAR-3. It counts as cell-based. Particulars: Homo sapiens; OVCAR-3, treated 48 hours, SRB stain. The procedure, abridged: as §1
A further series relates to LOX-IMVI (melanoma). Put plainly: NCI method SRB growth inhibition, LOX-IMVI. It counts as cell-based. Particulars: Homo sapiens, treated 48 hours, SRB stain. The procedure, abridged: as §1
In series [4] the test system is A549 (non-small cell lung cancer). Put plainly: NCI method SRB growth inhibition, A549. It counts as cell-based. The settings on record: Homo sapiens; A549, treated 48 hours, SRB stain. The procedure, abridged:
as §1

A further series deals with K562 (leukemia). Put plainly: NCI method SRB growth inhibition, K562. It counts as cell-based. Particulars: Homo sapiens; K562, treated 48 hours, SRB stain. A digest of the protocol:
as §1

The next series concerns HS 578T (breast cancer). Put plainly: NCI method SRB growth inhibition, HS 578T. The settings on record: Homo sapiens, HS578T, treated 48 hours, SRB stain. Type of series: cell-based. The procedure, abridged:
as §1

Where two headings read alike, the source gives them in different places. Some results are limits rather than exact numbers.

For the molecule `[2H]C([2H])([2H])Oc1cc(C(=O)Nc2cc3c(cc2Oc2cc(C)cc(C)c2)C(=O)N(C)[C@@H](CC(=O)N(C([2H])([2H])[2H])C([2H])([2H])[2H])C(=O)N3)c(Br)c(OC([2H])([2H])[2H])c1OC([2H])([2H])[2H]` [Compound 14, (S)-2-bromo-N-[3-[2-[bis(trideuteromethyl)amino]-2-oxoethyl]-7-(3,5-dimethylphenoxy)-4-methyl-2,5-dioxo-2,3,4,5-tetrahydro-1H-benzo[e][1,4]diazepin-8-yl]-3,4,5-tris(trideuteromethoxy)benzamide], the “killing effect on SUM159 sphere” value in series [1] was “strong killing effect”. Moreover, the “formation of the sphere after cell passage” value (“formation of the sphere” for short) in series [1] is on record as “significantly reduced”. For the same molecule, the GI50 in the series with HCT116 (colon cancer) is less than 5 nM; in the series with PC-3 (prostate cancer), less than 5 nM; in series [3] it was less than 5 nM; in the series on 786-0 (renal cancer) it was 5 nM; in the series with OVCAR-3 (ovarian cancer) it was less than 5 nM; in the series on LOX-IMVI (melanoma), less than 5 nM. The GI50 (in series [4]; in the series with K562 (leukemia)) was less than 5 nM throughout. This molecule also came in with a microsomal CLint at 1 μM in series [2] of 11.3 µL/min/mg. Moreover, the half-life at 1 μM in series [2] (human, human liver microsomes) is 1.02 h.

As for `[2H]C([2H])([2H])C([2H])([2H])N(C(=O)C[C@H]1C(=O)Nc2cc(NC(=O)c3cc(OC)c(OC)c(OC)c3Br)c(Oc3cc(C)cc(C)c3)cc2C(=O)N1C)C([2H])([2H])C([2H])([2H])[2H]` [Compound 11, (S)-2-bromo-N-[3-[2-[bis(pentadeuteroethyl)amino]-2-oxoethyl]-7-(3,5-dimethylphenoxy)-4-methyl-2,5-dioxo-2,3,4,5-tetrahydro-1H-benzo[e][1,4]diazepin-8-yl]-3,4,5-trimethoxybenzamide], the “killing effect on SUM159 sphere” value in [1] was “strong killing effect”. Moreover, in series [1], the “formation of the sphere” value was “significantly reduced”. Besides, the GI50 is 15.7 nM in the series on HCT116 (colon cancer); less than 5 nM in the series on HS 578T (breast cancer); less than 5 nM in the series with PC-3 (prostate cancer); 10.9 nM in series [3]; 10.4 nM with 786-0 (renal cancer); less than 5 nM with OVCAR-3 (ovarian cancer). Also, the GI50 (in the series with LOX-IMVI (melanoma); in series [4]; in the series with K562 (leukemia)) was less than 5 nM in each case. This molecule yielded an intrinsic clearance (microsomal CLint) at 1 μM in series [2] of 28.2 µL/min/mg. Also, the half-life at 1 μM in [2] (human, human liver microsomes) was determined as 0.41 h.

With `[2H]C([2H])([2H])Oc1cc(C(=O)Nc2cc3c(cc2Oc2cc(C)cc(C)c2)C(=O)N[C@@H](CC(=O)N(C([2H])([2H])[2H])C([2H])([2H])[2H])C(=O)N3)c(Br)c(OC([2H])([2H])[2H])c1OC([2H])([2H])[2H]` [Compound 21, (S)-2-bromo-N-[3-[2-[bis(trideuteromethyl)amino]-2-oxoethyl]-7-(3,5-dimethylphenoxy)-2,5-dioxo-2,3,4,5-tetrahydro-1H-benzo[e][1,4]diazepin-8-yl]-3,4,5-tris(trideuteromethoxy)benzamide], the “killing effect on SUM159 sphere” value in series [1] is given as “strong killing effect”. The “formation of the sphere” value in series [1] is “significantly reduced”. For the same molecule, the GI50 in the series on HCT116 (colon cancer) is less than 5 nM; in the series with PC-3 (prostate cancer), less than 5 nM; in series [3], 11.3 nM; in the series on 786-0 (renal cancer), 12.9 nM; with OVCAR-3 (ovarian cancer) it was less than 5 nM; in the series with LOX-IMVI (melanoma) it was less than 5 nM. In addition, the results for the GI50 (in series [4]; in the series with K562 (leukemia)) were 6.1 nM and less than 5 nM, respectively.

Turning to `[2H]C([2H])([2H])C([2H])([2H])N(C(=O)C[C@@H]1NC(=O)c2cc(Oc3cc(C)cc(C)c3)c(NC(=O)c3cc(OC)c(OC)c(OC)c3Br)cc2NC1=O)C([2H])([2H])C([2H])([2H])[2H]` [Compound 7, (S)-2-bromo-N-[3-[2-[bis(pentadeuteroethyl)amino]-2-oxoethyl]-7-(3,5-dimethylphenoxy)-2,5-dioxo-2,3,4,5-tetrahydro-1H-benzo[e][1,4]diazepin-8-yl]-3,4,5-trimethoxybenzamide], the “killing effect on SUM159 sphere” value in series [1] is recorded as “strong killing effect”. In series [1], the “formation of the sphere” value is “significantly reduced”. The GI50 with HCT116 (colon cancer) was less than 5 nM; with HS 578T (breast cancer), 8.2 nM; with PC-3 (prostate cancer), less than 5 nM; in series [3], less than 5 nM; in the series on 786-0 (renal cancer) it was 6.5 nM; in the series with OVCAR-3 (ovarian cancer), less than 5 nM. Further, the GI50 (in the series on LOX-IMVI (melanoma); in series [4]) was less than 5 nM each time. The microsomal CLint at 1 μM in series [2] is 13.9 µL/min/mg. Moreover, the half-life at 1 μM in [2] (human, human liver microsomes) is 0.832 h.

Take `[2H]C([2H])([2H])Oc1cc(C(=O)Nc2cc3c(cc2Oc2cc(C)cc(C)c2)C(=O)N(C)[C@@H](CC(=O)N(OC([2H])([2H])[2H])C([2H])([2H])[2H])C(=O)N3)c(Br)c(OC([2H])([2H])[2H])c1OC([2H])([2H])[2H]` [Compound 34]: the GI50 (in the series on HCT116 (colon cancer); in the series on HS 578T (breast cancer); in the series on PC-3 (prostate cancer); in [3]; with 786-0 (renal cancer); in the series on OVCAR-3 (ovarian cancer)) was less than 5 nM throughout. The GI50 (in the series on LOX-IMVI (melanoma); in [4]; in the series on K562 (leukemia)) was less than 5 nM each time. The half-life at 1 μM in [2] came out at 1.2 h. Moreover, the microsomal CLint at 1 μM in [2] (human, human liver microsomes) was 9.6 µL/min/mg.

On to `[2H]C([2H])([2H])Oc1cc(C(=O)Nc2cc3c(cc2Oc2cc(C)cc(C)c2)C(=O)N[C@@H](CC(=O)N(C)OC)C(=O)N3)c(Br)c(OC([2H])([2H])[2H])c1OC([2H])([2H])[2H]` [Compound 30], for which the GI50 was 7.8 nM in the series on HCT116 (colon cancer); less than 5 nM with HS 578T (breast cancer); less than 5 nM with PC-3 (prostate cancer); 11.6 nM in series [3]; 8.6 nM with 786-0 (renal cancer); less than 5 nM with OVCAR-3 (ovarian cancer). The GI50 with LOX-IMVI (melanoma) was less than 5 nM; in series [4], 4.9 nM; in the series with K562 (leukemia), 1.6 nM. The microsomal CLint at 1 μM in series [2] was 4.3 µL/min/mg. The half-life at 1 μM in series [2] (human, human liver microsomes) was 2.68 h.

On to `[2H]C([2H])([2H])Oc1cc(C(=O)Nc2cc3c(cc2Oc2cc(C)cc(C)c2)C(=O)N[C@@H](CC(=O)N2CCN(C)CC2)C(=O)N3)c(Br)c(OC([2H])([2H])[2H])c1OC([2H])([2H])[2H]` [Compound 29, (S)-2-bromo-N-[7-(3,5-dimethylphenoxy)-3-[2-(4-methylpiperazin-1-yl)-2-oxoethyl]-2,5-dioxo-2,3,4,5-tetrahydro-1H-benzo[e][1,4]diazepin-8-yl]-3,4,5-tris(trideuteromethoxy)benzamide], for which the GI50 in the series with HCT116 (colon cancer) was 12 nM; in the series with HS 578T (breast cancer) it was less than 5 nM; with PC-3 (prostate cancer), less than 5 nM; in [3], 93.8 nM; in the series with 786-0 (renal cancer) it was 244 nM; in the series on OVCAR-3 (ovarian cancer) it was less than 5 nM. Besides, the figures for the GI50 (in the series on LOX-IMVI (melanoma); in [4]; in the series on K562 (leukemia)) were less than 5 nM, 11.8 nM and 4.2 nM, respectively. The molecule also gave a microsomal CLint at 1 μM in series [2] of 5.4 µL/min/mg. Further, the half-life at 1 μM in series [2] (human, human liver microsomes) amounted to 2.13 h.

These data come from patent US12577213B2 (NINGBO COMBIREG PHARMACEUTICAL TECHNOLOGY CO., LTD., priority 2020, dated 2026).
